US8088819B2, “Derivatives of substituted 3-phenyl-1-(phenylthienyl)propan-1-ones and of 3-phenyl-1-(phenylfuranyl) propan-1-ones, preparation and use” (priority 2006, dated 2012)

Tests used:
dyslipidemic E2/E2 mice = experiment: Plasma lipid assays and lipoprotein distribution in the E2/E2 mouse; format: in vivo
Protocol: The antilipemic and HDL-cholesterol synthesis stimulating properties of the compounds according to the invention were evaluated in vivo by assay of the plasma lipids, analysis of the distribution of cholesterol and of triglycerides in the various plasma lipoprotein fractions and measurement of the expression of the target genes of the PPARs in the liver and skeletal muscle after treatment of dyslipidemic E2/E2 mice with compound 2.
The murine model used is the ApoE2/E2 type mouse, a transgenic mouse for the E2 isoform of human apolipoprotein E (Sullivan P M et al., 1998). In humans, this apolipoprotein, a constituent of the low and very low density lipoproteins (LDL-VLDL), occurs in three isoforms E2, E3 and E4. The E2 form has a mutation on an amino acid in position 158, which greatly weakens the affinity of this protein for the LDL receptor. The clearance of the VLDLs is accordingly almost zero. There is then accumulation of low-density lipoproteins and mixed hyperlipidemia called type III (high cholesterol and triglycerides).
(§1) Apo E2/E2 transgenic mice were kept under a cycle of light and darkness of 12/12 hours at a constant temperature of 20±3° C. After acclimation for one week, the mice were weighed and put into groups of 6 animals selected so that the distribution of their body weights and of their plasma lipid levels determined for the first time before the experiment are uniform. The test compounds were suspended in carboxymethylcellulose (Sigma C4888) and administered by intragastric force feeding, at a rate of once per day for 13 days at the chosen dose. The animals had free access to water and to food (standard diet). At the end of the experiment, the animals were anesthetized after fasting for 4 hours, a blood sample was taken using anticoagulant (EDTA), then the mice were weighed and euthanased. The plasma was separated by centrifugation at 3000 rev/min for 20 minutes, and the samples were stored at +4° C.
The various lipid fractions (VLDL, LDL, HDL) of the plasma were separated by gel filtration chromatography. The concentrations of cholesterol and of triglycerides were then measured in each fraction by enzyme assays (bioMérieux-Lyon-France) following the supplier's recommendations.
The plasma concentrations of total cholesterol were measured by enzyme assays (bioMérieux-Lyon-France) following the supplier's recommendations.
The low-density lipoproteins (VLDL and LDL) were precipitated with phosphotungstate. The precipitate was removed by centrifugation. The HDL-cholesterol present in the supernatant was quantified by enzyme assays (bioMérieux-Lyon-France) following the supplier's recommendations.

[1] = test system: target genes of the PPARs; experiment: Expression of target genes of the PPARs in liver and skeletal muscle of the E2/E2 mouse, quantitative RT-PCR; format: in vivo; conditions: 50 mpk, 13 days
Text: The PPARα agonistic properties of the molecules according to the invention previously measured in vitro must be reflected at the hepatic level in a modulation of the expression of the target genes directly under the control of the PPARα receptor. The genes that were investigated in this experiment are the genes coding for PDK4 (pyruvate dehydrogenase kinase isoform 4, enzyme of carbohydrate metabolism), for AcoX1 (the AcoX1 present in the mouse corresponds to the gene of ACO in humans (acyl co-enzyme A oxidase, a key enzyme in the mechanism of the β-oxidation of fatty acids)) and for Apo CIII (an apolipoprotein involved in lipid metabolism).
The PPARδ agonistic properties of the molecules according to the invention previously measured in vitro should also be reflected, at the level of the skeletal muscle, in overexpression of the target genes directly under the control of the PPARδ receptor. The genes that were investigated in this experiment are the genes coding for PDK4 (pyruvate dehydrogenase kinase isoform 4, enzyme of carbohydrate metabolism) and UCP2 (uncoupling protein 2, mitochondrial transporter involved in thermoregulation).
as §1
Samples of liver and of skeletal muscle tissue were taken and frozen immediately in liquid nitrogen and then stored at −80° C. for later analyses.
The total RNA was extracted from fragments of liver using the NucleoSpin® 96 RNA kit (Macherey Nagel, Hoerdt, France) following the manufacturer's instructions. […]
1 μg of total RNA (quantified by spectrophotometry) was then reverse-transcribed to complementary DNA by reaction for 1 hour at 37° C. in a total volume of 30 μl containing buffer 1× (Invitrogen), 1.5 mM of DTT, 0.18 mM of dNTPs (Promega), 200 ng of pdN6 (Amersham), 30 U of RNase inhibitor (Promega) and 1 μl of MMLV-RT (Invitrogen).
The quantitative PCR experiments were carried out using the MyiQ Single-Color Real-Time PCR Detection System (Biorad, Marnes-la-Coquette, France) and were performed using the iQ SYBR Green Supermix kit following the supplier's recommendations, in 96-well plates, on 5 μl of diluted reverse transcription reaction mixture with a hybridization temperature of 60° C. […]
In both cases (hepatic tissue and skeletal muscle tissue), the amount of fluorescence emitted is directly proportional to the amount of complementary DNA present at the start of the reaction and amplified during PCR. […] The relative expression levels of each target are thus determined using the efficacy curves obtained with the points in the range. […]

[2] = 50 mpk oral, 7 and 13 days, vs control animals

**Q.** CC(C)(Oc1ccc(CCC(=O)c2ccc(-c3ccc(C(F)(F)F)cc3)s2)c(Cl)c1Cl)C(=O)O [Compound 2, 2-(2,3-dichloro-4-(3-oxo-3-(5-(4-(trifluoromethyl)phenyl)thien-2-yl)propyl)phenoxy)-2-methylpropanoic acid] was tested. Which “plasma HDL-cholesterol level” value (dyslipidemic E2/E2 mice; [2]) did it give?
**A.** increased significantly

**Q.** And the “plasma total cholesterol level” value (dyslipidemic E2/E2 mice; [2])?
**A.** lowered significantly

**Q.** And the “level of triglycerides present in the VLDL” value (dyslipidemic E2/E2 mice; 50 mpk, 13 days)?
**A.** lowered

**Q.** And the “plasma HDL-cholesterol level (distribution of cholesterol in plasma lipoprotein fractions)” value (dyslipidemic E2/E2 mice; 50 mpk, 13 days)?
**A.** increased

**Q.** And the “plasma levels of LDL and VLDL (distribution of cholesterol in plasma lipoprotein fractions)” value (dyslipidemic E2/E2 mice; 50 mpk, 13 days)?
**A.** significant decrease

**Q.** And the “hepatic expression of the gene coding for AcoX1” value ([1]; liver)?
**A.** significant increase

**Q.** What about the “hepatic expression of the gene coding for ApoCIII” value ([1]; liver) of the same compound?
**A.** decrease

**Q.** And the “hepatic expression of the gene coding for PDK4” value ([1]; liver)?
**A.** significant increase

**Q.** What about the “expression of the gene coding for PDK4 in the skeletal muscle” value ([1]; skeletal muscle) of the same compound?
**A.** significant increase

**Q.** And the “expression of the gene coding for UCP2 in the skeletal muscle” value ([1]; skeletal muscle)?
**A.** significant increase
